Laboratory results from a melting point compilation (Tetko et al.; mined from patent text by program, amines drawn as free bases though some values may be those of a salt).

Row | SMILES | melting point [°C]
1 | Cc1ccccc1C(=O)NC(NC(=NC#N)Nc1cccnc1)C(Cl)(Cl)Cl (stereo not given) | 126 to 128
2 | CSC(=S)N1C(CO)Cc2c([nH]c3ccccc23)C1C (stereo not given) | 153 to 156
3 | CC(=O)NC1CCC(NC(=O)C2CC3c4cccc5c4c(cn5C(C)C)CC3N(C)C2)CC1 (stereo not given) | > 280
4 | CCC(=O)N(C)c1nc(Cl)c([N+](=O)[O-])s1 | 132 to 133
5 | Nc1cccc(-c2ccc(-c3ccc(CCN4CC5C(N)C5C4)cc3)cc2)n1 (stereo not given) | 205
6 | C1CC(C23CSC(SC2)SC3)C1 | 112 to 114
7 | CSc1nc(Cl)c(-c2c(F)cc(F)cc2F)c(N2CCCC(C)O2)n1 (stereo not given) | 110 to 111
8 | COc1ccccc1-n1c(=O)[nH]c2c(OC)cccc21 | 246 to 247
9 | Cc1cc(Nc2ncnc3ccc(-c4ccoc4)cc23)ccc1OCc1ccccn1 | 206 to 208
10 | COc1cc2c(Cl)nc3c4ccccc4nc(Cl)c3c2cc1OC | 245 to 246
11 | CCCCCCNC(=O)OCc1ccc(CNC(=O)OC2CCN(C(=O)Oc3ccc(Oc4ccccc4)cc3)CC2)cc1 | 116 to 118
12 | N#CC1=C(C2CCCC2)Nc2n[nH]cc2C1c1ccccc1Cl (stereo not given) | 225
13 | O=C(O)c1cc(OCCCOc2ccccc2-c2ccccc2)cc(OCCCOc2ccccc2-c2ccccc2)c1 | 110 to 113
14 | O=C(O)CCS(=O)CCC(=O)O | 114
15 | Cc1ccnc(N2CCN(CCCC3CNc4c(ccc(C)c4-c4cc(C)c(O)c(C)c4)O3)CC2)c1 (stereo not given) | 110
16 | O=c1[nH]sc2nc(-c3ccccc3)nc(CCc3ccccc3)c12 | 144 to 147
17 | CN(Cc1ccc(NC(=O)C2=Cc3cc(-c4ccc(F)cc4)ccc3S(=O)(=O)CC2)cc1)C1CCOCC1 | 219 to 221
18 | CC(C)C(OC(=O)NC1(C(=O)O)CC1)OC(=O)C1CCCCC1 (stereo not given) | 156 to 158
19 | CCOc1cc(-c2cc(C(F)(F)F)nc(-c3ccnc(-c4ccc(S(N)(=O)=O)s4)c3)n2)ccc1C(F)(F)F | 238
20 | O=C(Nc1ccc(C(=O)N2Cc3ccccc3Cc3ccccc32)cc1)c1ccccc1OC(F)(F)F | 232 to 235
21 | O=C(c1cccnc1)N1CCCC(c2ccccc2)=N1 | 84 to 86

Row | SMILES | melting point [°C]
22 | C1=NNC(c2ccccc2)c2ccccc21 (stereo not given) | 79
23 | Cc1nc2c(Br)cccc2c(=O)n1C1CCC(=O)NC1=O (stereo not given) | 307 to 309
24 | CC1(C)OC(=O)N[C@H]1Cc1ccccc1 | 59
25 | O=C1NCc2c1cc1ccc3c(c1c2-c1ccccc1)OCO3 | 290 to 292
26 | CN(C)C(=O)Nc1ccc(Oc2ccc3ccccc3c2)c(C(F)(F)F)c1 | 210 to 211
27 | OC1CCCN(CCCOc2ccc3cc(-c4n[nH]c5cc(-c6ccccc6)sc45)[nH]c3c2)C1 (stereo not given) | 213 to 216
28 | CCOP(=O)(OCC)C(F)c1ccc(NC(=O)CCc2oc(-n3cnc4ccccc43)nc2-c2ccc(Cl)cc2)cc1 (stereo not given) | 152 to 155
29 | COc1ccc(C2(C#Cc3cc(C#N)cc(C#N)c3)CCC(=O)CC2)cc1OC1CCCC1 | 148
30 | C#Cc1ccnc(NC(C)C)n1 | 84 to 85
31 | COc1ccc(-c2c(N[C@H](C)c3ccccc3)c(=O)c2=O)cc1 | 159 to 160
32 | Cn1cc(C(=O)O)c(=O)c2cc3cc(F)c(N4CCNC(c5ccco5)C4)c(F)c3nc21 (racemic) | 295 to 296
33 | COc1c(OS(=O)(=O)c2ccc(C)cc2)cc2c(c1OC)C1=C(CCC1)C(N1C(=O)c3ccccc3C1=O)CC2 (stereo not given) | 139
34 | CCOC(=O)c1nc2scc(CN(C)Cc3ccccc3)c2c(=O)[nH]1 | 129
35 | CNc1ccc(-c2cnc3[nH]c(=O)n(CC4CCOCC4)c3n2)cn1 | > 260
36 | CCN(CC)CCOCCC1CCCCN1C(=O)N1c2ccccc2C(=O)Nc2cccnc21 (stereo not given) | 134 to 136
37 | CNC=C1C(=S)C(C)(C)OC1(C)C | 115 to 117
38 | O=C(O)CCCC[C@@H]1SC[C@H]2[C@@H]1N(Cc1ccccc1)C(=O)N2Cc1ccccc1 | 88 to 89
39 | O=C1NC(=O)C(=Cc2ccccc2)C(=O)N1 | > 258
40 | CCN(CC)c1cc(-c2ccccc2)nc2nn(-c3ccccc3)cc12 | 148 to 149
41 | O=S1(=O)c2cccc3cccc(c23)N1CCCN1CCC(CC2C=Cc3ccccc32)CC1 (stereo not given) | 140
42 | COc1ccc(O)c(C2(CO)C(=O)N(Cc3ccc(C(F)(F)F)o3)c3cccc(Cl)c32)n1 (stereo not given) | 191 to 193

Row | SMILES | melting point [°C]
43 | CCCCCCCCCCCCCCCCCCOc1cc2ccccc2c(N=Nc2ccc(OC)cc2)c1O | 95 to 97
44 | C=Cc1cn(-c2ccccn2)c2c1C(=O)CC(C)(C)C2 | 150 to 154
45 | COCCCCc1cccc(C2(c3ccc(OC(F)F)cc3)N=C(N)N(C)C2=O)c1 (stereo not given) | 36 to 39
46 | CCCc1nc2c(N)ncc(Br)c2n1CCOCCN | 114 to 117
47 | OC1CSC(Oc2ccncc2)C(O)C1O (stereo not given) | 165 to 168
48 | COc1ccc(C(=O)N2CCC(CCN3CCC(Nc4nc5ccccc5[nH]4)CC3)(c3ccccc3)C2)c(OC)c1OC (stereo not given) | 112 to 119
49 | CN1CCC(C#N)(c2ccc(Cl)cc2F)CC1 | 85 to 87
50 | CN1CCC(Nc2ncc3ncnc(Nc4ccc(Oc5ccccc5)cc4)c3n2)CC1 | 157
51 | O=C(NCCCCCCOc1ccccc1C(=O)Nc1ccc(C(=O)N2CCCCc3ccccc32)cc1)c1ccccc1 | 178
52 | CNCC1Cc2cc(C(F)(F)F)cc(-c3cccc(F)c3F)c2O1 (stereo not given) | 123 to 125
53 | COc1ccccc1Nc1ccc2c(c1)OCc1cc(N)ccc1C2=O | 68.4
54 | Cc1c(-c2cncc(CO)c2)ccc2c(=O)c(C(=O)O)cn(C3CC3)c12 | 221 to 223
55 | CCN(CC)CCn1nc2c3c(c(CN)ccc31)Sc1ccc(OC)cc1-2 | 74 to 76
56 | CC(c1nnc2c(=O)[nH]c3cc(C(F)(F)F)c(Br)cc3n12)P(=O)(O)O (stereo not given) | > 300
57 | COc1ccc(N2CCN(CCn3c(=O)[nH]c4ccsc4c3=O)CC2)cc1 | 130 to 131
58 | CCOC(=O)Cc1ncn(C(c2ccccc2)(c2ccccc2)c2ccccc2)n1 | 117 to 119
59 | Cc1nc(-n2cc(CCC3CCCCC3)nn2)sc1C(=O)NCc1ccccc1 | 82 to 84
60 | CN(Cc1cc2c3c(c1)c(=O)c(C(=O)NCc1ccc(F)cc1)cn3CC(=O)N2C)C[C@@H](O)c1ccco1 | 150 to 152
61 | COc1cc(CC(=O)NCCCc2ccc(C)c(C)c2)ccc1OCCNC(=O)c1ccccc1OC(C)=O | 135 to 137

Now from value to molecule:

Row | melting point [°C] | SMILES
62 | 118 to 119 | Cc1ccccc1C(=O)Cc1ccncc1
63 | 220 to 224 | COc1ccccc1C1(Cl)C(=O)Nc2ccc(Cl)cc21 (stereo not given)
64 | 163 to 166 | CCOC(=O)c1ccc(NC(=O)C=Cc2ccc(OC)cc2)cc1
65 | 113 | CC(C)(CO)NS(=O)(=O)c1cc([N+](=O)[O-])c(Cl)s1
66 | 155 to 158 | CC(C)(C)OC(=O)N1CCC(c2nc3cc(-c4ccc(S(C)(=O)=O)cc4F)cc(F)c3o2)CC1
67 | 172 | CCN(CC)CCOc1ccc(Nc2ncc3c(n2)N(C)C(=O)N(c2ccc(Cl)cc2Cl)C3)cc1
68 | 74 | CNC(=O)[C@@H]1CCCCN1S(=O)(=O)c1ccc(Cl)c(COc2cccc3c(-n4ccnc4)cc(C)nc23)c1Cl
69 | 61 to 63 | COC(=S)CCc1cc(Oc2ccc(C(F)(F)F)cc2Cl)ccc1[N+](=O)[O-]
70 | 140 to 143 | CCCC(=O)N(C)c1cccc(-c2ccc3nnc(C)n3n2)c1
71 | 176 to 178 | CC(C)(CO)CNc1cc(C(c2cc(F)ccc2F)S(=O)(=O)c2ccc(Cl)cc2)c(Cl)cn1 (stereo not given)
72 | 184 to 186 | NC(=O)c1ccc(F)c2c1CC([N+](=O)[O-])CO2 (stereo not given)
73 | 58 to 60 | CCN(CC)CCNC(=O)c1cc(F)c2cc(I)ccc2n1
74 | 162 to 163 | CCC(=O)N[C@@H]1CCc2ccc(OC)cc2[C@H]1O
75 | 149 | CO[C@]1(c2cc(F)cc(S(=O)(=O)c3ccc(/C(C)=N/O)cc3)c2)CCO[C@@H](C)C1
76 | 187 to 188 | CC1(Cc2ccccc2)OC(=O)Nc2ccc(-c3cccc(Cl)c3)cc21 (stereo not given)
77 | 220 | O=C(O)c1cc(=O)c2cc(-c3ccccc3)ccc2s1
78 | 273 to 274 | CC1Cc2c(c3cccnc3n(-c3ccc(Cl)c(Cl)c3)c2=O)O1 (stereo not given)

Row | melting point [°C] | SMILES
79 | 61 to 65 | Cc1ccc(NC=CS(=O)(=O)F)cc1
80 | 135 to 142 | CC1(C)CC(=O)c2cc(O)ccc2S1
81 | 146 to 148 | CCOc1ccc(NC(=O)C(C)(C)O)cc1
82 | 256 to 259 | O=C(O)c1ccc(CCc2ccc(NC(=O)C3CSc4ccccc4C3=O)cc2)cc1 (stereo not given)
83 | 204 to 206 | COC(=O)CCc1ccc(N2CCN(c3ccc4c(c3)CCC4=O)C2=O)cc1
84 | 261 to 264 | CC(C)(Cn1cnc2c(N)nc3ccccc3c21)OCCS(C)(=O)=O
85 | 74 to 76 | CCCCCN1C(=O)C2(COc3cc(F)c(Cl)cc32)c2ccccc21 (stereo not given)
86 | 81 to 83 | Cn1c(=O)c2c(ncn2CC(O)COC(=O)COc2ccc(Cl)cc2)n(C)c1=O (stereo not given)
87 | 153 | CNS(=O)(=O)c1cc(C(=O)CCl)ccc1Cl
88 | 193 to 195 | COC(=O)c1ccc(C)c(-n2c(C)cc(OCc3ccccc3CNC(=O)Nc3cc(C(C)(C)C)nn3-c3ccc(Cl)c(O)c3)c(Cl)c2=O)c1
89 | 161 to 162 | O=C(CC(O)(c1cc(Cl)cc(Cl)c1)C(F)(F)F)c1ccc(-n2ccnc2)cc1 (stereo not given)
90 | 112 to 115 | COc1ccc(C(=O)c2cc(Cl)ccc2N)c(O)c1OC
91 | 192 to 194 | O=C(O)c1cc([N+](=O)[O-])ccc1C1SCCCS1
92 | 116 to 118 | O=C(CNC(=O)c1ccc([N+](=O)[O-])cc1[N+](=O)[O-])OCc1ccccc1
93 | 151 to 152 | CCCn1c(=O)nc(Sc2ccc(Cl)cc2)sc1=S
94 | 249 to 251 | CS(=O)(=O)c1ccc(-c2cnn(-c3ccc(Cl)s3)c(=O)c2-c2ccc(Cl)cc2)cc1
95 | 176 to 180 | COc1cc(OC)c(/C=C/S(=O)(=O)Cc2ccc(OC)c(NC(C)C(=O)O)c2)c(OC)c1 (stereo not given)
